pIC50: −log10 of the molar value.
Legend:
IGFR = IGFR (Homo sapiens, UniProt P08069); details: cellular; read-out: IC50, cellular IGFR ligand-induced phosphorylation; cited from earlier work
γ-H2AX [1] = test: γ-H2AX by Western Blot; type: cell-based; details: NCI-H1703
γ-H2AX [2] = test: γ-H2AX positive cells by flow cytometry; type: cell-based; details: NCI-H1703
Source text: To confirm the above observations, percentage of γ-H2AX positive cells was quantified using flow cytometry.

[3] = system: FGFR1-amplified lung cancer cells; details: in combination with FGFR inhibitors; cited from earlier work
cleaved caspase-3 [4] = test: cleaved-caspase-3 positive cells by flow cytometry; type: cell-based; details: NCI-H1703; 24 h and 48 h; onvansertib 50 nM, AZD4547 2.5 μM
[5] = patients, cited from earlier work
NCI-H1703 cells [6] = test: cell cycle analysis; type: cell-based; details: 48 hrs, onvansertib 50 nM, AZD4547 2.5 μM
Description: (§1) The percentage of pHH3 positive cells was also determined using flow cytometry at 24 h and 48 h.

NCI-H1703 cells [7] = test: colony forming capacity, crystal violet staining; type: cell-based; details: onvansertib 50 nM, AZD4547 250 nM
Source text: The culture media was changed again after 3 days. After culturing for another 6 days, the NCI-H1703 cells were stained with crystal violet. The workflow of determining colony forming capacity is illustrated in FIG. 21. […] The colonies formed by NCI-H1703 cells shown in FIG. 22 were quantified as indicated by percentage relative intensity (FIG. 23).

NPM at Threonine 199 = test: phosphorylation of NPM at Threonine 199; type: cell-based; details: NCI-H1703; 6 hrs, 24 hrs and 48 hrs
[8] = system: phosphorylated histone H3 (pHH3); test: pHH3 positive cells by flow cytometry; type: cell-based; details: NCI-H1703
Description: as §1

AML cell lines = details: cited from earlier work
PLK1 = PLK1 (Homo sapiens, UniProt P53350); details: among a panel of 296 kinases, including other PLK members; cited from earlier work
cleaved caspase-3 [9] = test: cleaved caspase-3 by Western Blot; type: cell-based; details: NCI-H1703; 24 h and 48 h; onvansertib 50 nM, AZD4547 2.5 μM
Description: In addition, the amounts of cleaved caspase-3 and cleaved PARP were determined at 6 h, 24 h and 48 h after different treatments using Western Blot.

[10] = time point not given, compared to cells receiving no treatment
[11] = time point not given, compared to DMSO
[12] = 24 h and 48 h, onvansertib 50 nM, AZD4547 2.5 μM

Chain of PLK1 (P53350 whole entry): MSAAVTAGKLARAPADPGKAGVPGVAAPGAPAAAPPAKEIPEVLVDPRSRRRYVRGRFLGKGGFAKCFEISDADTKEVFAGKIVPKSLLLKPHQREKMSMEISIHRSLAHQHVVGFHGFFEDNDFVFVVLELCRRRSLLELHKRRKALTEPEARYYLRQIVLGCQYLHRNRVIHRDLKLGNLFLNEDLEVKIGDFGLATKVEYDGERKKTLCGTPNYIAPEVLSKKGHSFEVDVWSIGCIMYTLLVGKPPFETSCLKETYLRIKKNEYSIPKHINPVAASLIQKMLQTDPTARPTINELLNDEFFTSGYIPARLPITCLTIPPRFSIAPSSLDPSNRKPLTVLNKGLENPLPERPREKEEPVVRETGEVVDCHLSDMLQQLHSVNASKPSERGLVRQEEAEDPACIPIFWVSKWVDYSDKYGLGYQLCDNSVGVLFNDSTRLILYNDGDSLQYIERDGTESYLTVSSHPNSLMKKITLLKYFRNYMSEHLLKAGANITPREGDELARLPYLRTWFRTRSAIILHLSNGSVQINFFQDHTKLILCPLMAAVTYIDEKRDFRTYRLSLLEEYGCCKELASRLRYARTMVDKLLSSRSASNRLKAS
Chain of IGFR (P08069 31-1367): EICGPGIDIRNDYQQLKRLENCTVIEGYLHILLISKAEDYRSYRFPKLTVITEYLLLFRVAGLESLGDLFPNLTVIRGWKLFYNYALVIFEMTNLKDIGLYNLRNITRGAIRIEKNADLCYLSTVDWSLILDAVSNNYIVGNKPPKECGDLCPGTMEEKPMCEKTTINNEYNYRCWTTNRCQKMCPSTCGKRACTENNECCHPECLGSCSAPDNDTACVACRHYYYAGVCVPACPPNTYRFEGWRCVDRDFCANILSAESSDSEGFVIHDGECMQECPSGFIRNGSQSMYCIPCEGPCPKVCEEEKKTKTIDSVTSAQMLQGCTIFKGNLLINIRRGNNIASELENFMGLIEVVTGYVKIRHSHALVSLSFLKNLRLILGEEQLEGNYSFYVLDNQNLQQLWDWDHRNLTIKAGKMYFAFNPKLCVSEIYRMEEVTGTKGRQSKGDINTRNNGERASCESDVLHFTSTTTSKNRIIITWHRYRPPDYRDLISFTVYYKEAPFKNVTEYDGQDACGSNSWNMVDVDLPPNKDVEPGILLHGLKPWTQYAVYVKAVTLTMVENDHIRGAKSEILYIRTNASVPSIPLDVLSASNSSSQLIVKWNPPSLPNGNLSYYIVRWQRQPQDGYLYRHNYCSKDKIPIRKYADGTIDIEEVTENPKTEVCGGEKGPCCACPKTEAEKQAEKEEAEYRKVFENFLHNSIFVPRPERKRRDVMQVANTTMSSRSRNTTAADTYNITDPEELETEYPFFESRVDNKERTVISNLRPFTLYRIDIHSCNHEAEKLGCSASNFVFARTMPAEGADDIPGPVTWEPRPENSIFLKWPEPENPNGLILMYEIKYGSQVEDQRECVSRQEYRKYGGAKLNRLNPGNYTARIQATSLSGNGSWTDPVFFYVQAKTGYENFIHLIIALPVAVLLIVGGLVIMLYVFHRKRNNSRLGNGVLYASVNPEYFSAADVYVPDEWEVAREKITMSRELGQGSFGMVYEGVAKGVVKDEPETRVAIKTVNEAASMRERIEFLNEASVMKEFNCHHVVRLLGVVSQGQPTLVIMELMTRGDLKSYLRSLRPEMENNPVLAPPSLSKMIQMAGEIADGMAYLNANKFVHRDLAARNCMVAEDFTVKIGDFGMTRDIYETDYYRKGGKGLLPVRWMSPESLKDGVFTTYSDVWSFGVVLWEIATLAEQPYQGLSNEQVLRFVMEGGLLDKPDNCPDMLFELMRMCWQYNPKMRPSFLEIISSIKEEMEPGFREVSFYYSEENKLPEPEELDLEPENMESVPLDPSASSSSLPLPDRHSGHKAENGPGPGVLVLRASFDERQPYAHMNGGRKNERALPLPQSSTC

Row | SMILES | pIC50 (IGFR) | amounts of γ-H2AX (γ-H2AX [1]; [10]) | percentage of γ-H2AX positive cells (γ-H2AX [2]; [11]) | antiproliferative effects and apoptosis [3] | percentage of cleaved-caspase-3 positive cells (cleaved caspase-3 [4]) | primary dose-limiting toxicities ([5]; phase I dose-escalation) | recovery of hematologic toxicities ([5]; reversible toxicities, phase I) | % of cells in G2 and/or mitotic stages (NCI-H1703 cells [6]) | amounts of γ-H2AX (γ-H2AX [1]; [12]) | colony-forming capacity (NCI-H1703 cells [7]) | phosphorylation of NPM at Threonine 199 (NPM at Threonine 199) | percentage of pHH3 positive cells ([8]; 24 h) | percentage of pHH3 positive cells ([8]; 48 h) | percentage of γ-H2AX positive cells (γ-H2AX [2]; [12]) | inhibition of cell proliferation (AML cell lines) | specificity for PLK1 (PLK1) | amount of cleaved caspase-3 (cleaved caspase-3 [9])
1 | COc1cc(CCc2cc(NC(=O)c3ccc(N4C[C@@H](C)N[C@@H](C)C4)cc3)n[nH]2)cc(OC)c1 [AZD4547, N-[5-[2-(3,5-Dimethoxyphenyl)ethyl]-2H-pyrazol-3-yl]-4-(3,5-diemthylpiperazin-1-yl)benzamide] | 6.08 | about the same | about the same | – | – | – | – | – | – | – | – | – | – | – | – | – | –
2 | CC[C@@H]1C(=O)N(C)c2cnc(Nc3ccc(C(=O)NC4CCN(C)CC4)cc3OC)nc2N1C1CCCC1 [BI2536] | – | – | – | synergistically enhances antiproliferative effects and apoptosis | – | – | – | – | – | – | – | – | – | – | – | – | –
3 | CN1CCN(c2ccc(OC(F)(F)F)c(Nc3ncc4c(n3)-c3c(c(C(N)=O)nn3CCO)CC4)c2)CC1 [onvansertib, 1-(2-hydroxyethyl)-8-{[5-(4-methylpiperazin-1-yl)-2-(trifluoromethoxy)phenyl]amino}-4,5-dihydro-1H-pyrazolo[4,3-h] quinazoline-3-carboxamide] | – | about the same | about the same | – | increased the percentage of cleaved-caspase-3 positive cells | neutropenia and thrombocytopenia | ≤ 3 weeks | increased the % of cells in G2 and/or mitotic stages | increased the γ-H2AX | reduced the colony-forming capacity | Increased phosphorylation of NPM | increased the percentage of pHH3 positive cells | increased the percentage of pHH3 positive cells to a similar extent | increased the percentage of γ-H2AX positive cells | inhibited cell proliferation at nanomolar concentrations | high specificity | increased the cleaved caspase-3
